ChEMBL document CHEMBL5329201, “Development of 3-acetylindole derivatives that selectively target BRPF1 as new inhibitors of receptor activator of NF-κB ligand (RANKL)-Induced osteoclastogenesis” (Bioorg Med Chem, 2023)
Active and inactive are the calls of the source. The calls are words filed in the database; no cut-off is given here.

Key:
[1] = Inhibition of His-tagged human recombinant BRPF1B bromodomain using biotinylated H4 (1 to 21)K5/8/12/16Ac peptide as substrate incubated for 0.5 hrs by AlphaScreen assay
[2] = Anti-osteoclastogensis activity in C57BL/6 mouse BMMC cells assessed as inhibition of RANKL/M-CSF-induced TRAP activity at 1 uM measured after 3 days by colorimetric assay (reference value: 0%); assay type: functional; conditions: C57BL/6, BMMC, 72 h, time 3 day
[3] = Cytotoxicity against C57BL/6 mouse BMMC cells assessed as cell viability at 10 uM measured after 48 hrs by CCK-8 assay (reference value: 100%); assay type: toxicity, cell-based; conditions: read-out: Activity
BMMC [4] = experiment: Anti-osteoclastogenesis activity in C57BL/6 mouse BMMC cells assessed as reduction of RANKL/M-CSF-induced osteoclast activation and differentiation measured after 5 days by TRAP staining based light microscopic analysis; assay type: functional, cell-based; conditions: for Activity: time 5.0 day
Homo sapiens [5] = species on record: Homo sapiens; experiment: Inhibition of His-tagged human recombinant BRPF1B bromodomain using biotinylated H4 (1 to 21)K5/8/12/16Ac peptide as substrate at 20 uM incubated for 0.5 hrs by AlphaScreen assay relative to control
Homo sapiens [6] = species on record: Homo sapiens; experiment: Inhibition of His-tagged human recombinant BRPF1B bromodomain using biotinylated H4 (1 to 21)K5/8/12/16Ac peptide as substrate at 2 uM incubated for 0.5 hrs by AlphaScreen assay relative to control
BMMC [7] = experiment: Anti-osteoclastogenesis activity in C57BL/6 mouse BMMC cells assessed as reduction of RANKL/M-CSF-induced NFATc1 mRNA expression at 1 uM measured after 3 days by qRT-PCR analysis; assay type: functional, cell-based; conditions: time 3.0 day
BMMC [8] = experiment: Anti-osteoclastogenesis activity in C57BL/6 mouse BMMC cells assessed as reduction of RANKL/M-CSF-induced osteoclast activation and differentiation by measuring decrease in F-actin ring formation measured after 5 days by F-actin staining based microscopic analysis; assay type: functional, cell-based; conditions: time 5.0 day
BMMC [9] = experiment: Anti-osteoclastogenesis activity in C57BL/6 mouse BMMC cells assessed as reduction of RANKL/M-CSF-induced TRAP mRNA expression at 1 uM measured after 3 days by qRT-PCR analysis; assay type: functional, cell-based; conditions: time 3.0 day
BMMC [10] = experiment: Anti-osteoclastogenesis activity in C57BL/6 mouse BMMC cells assessed as reduction of RANKL/M-CSF-induced c-fos expression at 1 to 10 uM measured after 3 days by Western blot analysis; assay type: functional, cell-based; conditions: dose 1-10 µM, time 3.0 day
BMMC [11] = experiment: (§1) Anti-osteoclastogenesis activity in C57BL/6 mouse BMMC cells assessed as reduction of RANKL/M-CSF-induced bone resorption of osteoclasts by measuring decrease in pit areas treated for 7 days after seeding cells onto bone slices by toluidine blue staining based confocal laser microscopic analysis; assay type: functional, cell-based; conditions: dose 0.625-10 µM, time 7.0 day
BMMC [12] = experiment: as §1, with “decrease in bone resorption pit formation” for “decrease in pit areas”, “resorption pit formation treated for” for “in pit areas treated for”; assay type: functional, cell-based; conditions: dose 0.625-10 µM, time 7.0 day
BMMC [13] = experiment: Anti-osteoclastogenesis activity in C57BL/6 mouse BMMC cells assessed as reduction of RANKL/M-CSF-induced osteoclast activation and differentiation by measuring F-actin ring formation with fewer and smaller nuclei measured after 5 days by F-actin staining based microscopic analysis; assay type: functional, cell-based; conditions: time 5.0 day
BMMC [14] = experiment: Anti-osteoclastogenesis activity in C57BL/6 mouse BMMC cells assessed as reduction of RANKL/M-CSF-induced c-fos mRNA expression measured after 3 days by qRT-PCR analysis; assay type: functional, cell-based; conditions: dose 2.5-10 µM, time 3.0 day
BMMC [15] = experiment: Anti-osteoclastogenesis activity in C57BL/6 mouse BMMC cells assessed as reduction of RANKL/M-CSF-induced CTSK mRNA expression at 1 uM measured after 3 days by qRT-PCR analysis; assay type: functional, cell-based; conditions: time 3.0 day
Homo sapiens [16] = species on record: Homo sapiens; experiment: Binding affinity to BRPF1B (unknown origin) assessed as change in melting temperature at 10 uM by Differential scanning fluorimetry

Row | Compound | IC50 [1] | inhibition at 1 µM [2] | viability at 48 h, 10 µM [3] | inhibition (Homo sapiens [5]) | further results
1 | CCOC(=O)Nc1cc(-c2ccccn2)cc2cc(C)[nH]c12 | > 10 µM |  |  |  | 
2 | CC(=O)c1c(C)[nH]c2c(N(C)C)cc(-c3cccnc3)cc12 | 0.173 µM | 26.2% | 104% |  | 
3 | CCOC(=O)Nc1cc(C(=O)NC)cc2c(C(C)=O)c(C)[nH]c12 | 0.908 µM | 36.8% | 92.6% |  | 
4 | COc1ccccc1S(=O)(=O)Nc1cc(-c2cccnc2)cc2c(C(C)=O)c(C)[nH]c12 | 1.09 µM | 74.2% | 92.7% |  | Activity (BMMC [4]): Dose-Dependent Effect
5 | COC(=O)c1cc(NC(=O)Nc2ccccc2OC)c2[nH]c(C)c(C(C)=O)c2c1 |  |  |  | 91.9% | 
6 | CC(=O)c1c(C)[nH]c2c(N)cc(-c3cccnc3)cc12 | 1.12 µM | 0% | 109% |  | 
7 | CCOC(=O)Nc1cc(C(=O)OC)cc2c(C(C)=O)c[nH]c12 |  |  |  | 13.1% | 
8 | CCCC(=O)Nc1cc(C(=O)OC)cc2c(C(C)=O)c(C)[nH]c12 |  |  |  | 100% | inhibition (Homo sapiens [6]): 38.5%
9 | CCOC(=O)Nc1cc(C(=O)c2ccccc2)cc2c(C(C)=O)c(C)[nH]c12 | 0.743 µM | 66.8% | 119% |  | 
10 | CC(=O)c1c(C)[nH]c2c(NC3CCNCC3)cc(-c3cccnc3)cc12 | 0.442 µM | 57.1% | 94.9% |  | 
11 | CCNC(=O)Nc1cc(-c2cccnc2)cc2c(C(C)=O)c(C)[nH]c12 | 1.44 µM |  |  |  | 
12 | CCOC(=O)Nc1cc(C(=O)OC)cc2c(C(C)=O)c(C)n(C)c12 |  |  |  | 99.8% | inhibition (Homo sapiens [6]): 17.6%
13 | CCOC(=O)Nc1cc(-c2nccs2)cc2c(C(C)=O)c(C)[nH]c12 | 0.294 µM | 41.3% | 111% |  | 
14 | COC(=O)c1cc(NC(=O)c2ccccc2)c2[nH]c(C)c(C(C)=O)c2c1 |  |  |  | 100% | inhibition (Homo sapiens [6]): 11.5%
15 | CC(=O)c1c(C)[nH]c2c(NC3CNC3)cc(-c3cccnc3)cc12 | 3.43 µM |  |  |  | 
16 | CC(=O)c1c(C)[nH]c2c(N(C)C)cc(-c3ccncc3)cc12 | 0.07 µM | 67.1% | 110% |  | 
17 | CCOC(=O)Nc1cc(-c2cccnc2)cc2c(C(C)=O)c(C)[nH]c12 | 0.102 µM | 73.8% | 113% |  | Activity (BMMC [7]): Active; Activity (BMMC [8]): Active; Activity (BMMC [9]): Active; Activity (BMMC [10]): Active; Activity (BMMC [11]): Dose-Dependent Effect; Activity (BMMC [12]): Dose-Dependent Effect; Activity (BMMC [13]): Active; Activity (BMMC [14]): Dose-Dependent Effect; IC50 (BMMC [4]; C57BL/6, BMMC, 120 h): 0.19 µM; Activity (BMMC [4]): Dose-Dependent Effect; Activity (BMMC [15]): Active
18 | CCOC(=O)Nc1cc(-c2ccncc2)cc2c(C(C)=O)c(C)[nH]c12 | 0.109 µM | 66.5% | 107% |  | 

Row | Compound | IC50 [1] | inhibition at 1 µM [2] | viability at 48 h, 10 µM [3] | inhibition (Homo sapiens [5]) | further results
19 | CCOC(=O)Nc1cc(C(=O)Nc2nccs2)cc2c(C(C)=O)c(C)[nH]c12 | 0.309 µM | 0% | 104% |  | 
20 | COC(=O)c1cc(NS(=O)(=O)c2ccccc2OC)c2[nH]c(C)c(C(C)=O)c2c1 |  |  |  | 100% | inhibition (Homo sapiens [6]): 60%
21 | CCNC(=O)Nc1cc(C(=O)OC)cc2c(C(C)=O)c(C)[nH]c12 |  |  |  | 100% | inhibition (Homo sapiens [6]): 42.2%
22 | COC(=O)c1cc(NC(=O)c2ccccc2OC)c2[nH]c(C)c(C(C)=O)c2c1 |  |  |  | 28.3% | 
23 | CC(=O)c1c(C)[nH]c2c(N3CCCC3)cc(-c3cccnc3)cc12 | 0.233 µM | 40% | 101% |  | 
24 | COC(=O)c1cc(NC(=O)Nc2ccccc2)c2[nH]c(C)c(C(C)=O)c2c1 |  |  |  | 100% | inhibition (Homo sapiens [6]): 17.6%
25 | COC(=O)c1cc(NC(=O)c2ccc(Cl)cc2)c2[nH]c(C)c(C(C)=O)c2c1 |  |  |  |  | ΔTm (Homo sapiens [16]): 1.92 °C
26 | CCOC(=O)CNc1cc(C(=O)OC)cc2c(C(C)=O)c(C)[nH]c12 |  |  |  |  | ΔTm (Homo sapiens [16]): 5.18 °C
27 | CC(=O)c1c(C)[nH]c2c(N(C)C)cc(-c3ccccn3)cc12 | 0.54 µM | 100% | 28.9% |  | 
28 | COC(=O)c1cc(NC(=O)Nc2cccc(C(F)(F)F)c2)c2[nH]c(C)c(C(C)=O)c2c1 |  |  |  | 82.3% | 
29 | CCOC(=O)Nc1cc(C(=O)OC)cc2c(C(C)=O)c(C)[nH]c12 | 0.558 µM |  |  | 100% | inhibition (Homo sapiens [6]): 93.1%; ΔTm (Homo sapiens [16]): 5.39 °C
30 | CC(=O)c1c(C)[nH]c2c(N(C)C)cc(-c3nccs3)cc12 | 0.09 µM | 44.1% | 92.6% |  | 
31 | CCOC(=O)Nc1cc(C(=O)NC2CCCC2)cc2c(C(C)=O)c(C)[nH]c12 | 1.83 µM |  |  |  | 
32 | CCOC(=O)Nc1cc(C(=O)Nc2ccccc2)cc2c(C(C)=O)c(C)[nH]c12 | 1.7 µM |  |  |  | 
33 | CCOC(=O)Nc1cc(-c2ccccc2)cc2c(C(C)=O)c(C)[nH]c12 | 0.206 µM | 0% | 110% |  | 
34 | COc1ccccc1C(=O)Nc1cc2c(cc1N1CCCC1)n(C)c(=O)n2C |  |  |  | 100% | inhibition (Homo sapiens [6]): 101%
35 | CCOC(=O)Nc1cc(-c2ccccn2)cc2c(C(C)=O)c(C)[nH]c12 | 0.109 µM | 38.8% | 110% |  | 
36 | COC(=O)c1cc(NS(=O)(=O)c2ccccc2)c2[nH]c(C)c(C(C)=O)c2c1 |  |  |  | 100% | inhibition (Homo sapiens [6]): 18.3%
